Laboratory results as given in patent publication US8664276B2, “Stilbene analogs and methods of treating cancer” (University of Kentucky Research Foundation, priority 2011, dated 2014).
Entries after “also recorded” stand apart in the source; their conditions may differ.

How the values were obtained:
liver cancer cells = experiment: Liver cancer cell proliferation; type: cell-based; conditions: FIG. 15
Experimental: (§1) Western blot and cell proliferation assay. The activity of fluorinated N,N-dialkylaminostilbenes (FIDAS or FIDAS agents) on Wnt signaling activity in cancer cells were analyzed by Western blot with antibodies against Wnt target genes, such as c-Myc, Axin2. The effects of FlDAS agents on cancer cell growth were analyzed using Cell Viability Analyzer (Beckman Coulter, Vi-Cell XR). These assays have been described previously (see Zhang et al., J. of Med. Chem. 54, 1288-1297 (2011)).
As previously shown, several metabolites of the halogenated stilbenes of the present disclosure were synthesized (Example 2 and FIG. 3). In this study, the effects of some of these metabolites on cell proliferation were studied.

LS174 CRC cells = experiment: CRC cell proliferation assay (Vi-Cell); type: cell-based; conditions: for colon cancer cell proliferation, effectiveness versus resveratrol and 4r: FIG. 14
Experimental: Luciferase and cell proliferation assay. HEK293T cells were transiently transfected in a 12-well plate with 0.2 μg of the Super8xTOPFlash reporter and 0.05 μg of Renilla luciferase reporter. Culture medium was changed after 12 h. After 6 h, cells were treated with DMSO or Wnt inhibitors for 12 h, and then treated with 25 mM LiCl or Wnt conditioned medium. After 12 h, cells were harvested and luciferase activity measured by Dual-luciferase Reporter Assay System (Promega, Madison Wis.). All conditions were done in triplicate and each experiment was carried out at least two times. For cell proliferation assay, CRC cells were treated with DMSO or inhibitors for 2d and 4d. The cell numbers and viability were analyzed by Vi-Cell Cell Viability Analyzer.
as §1

[1] = system: Wnt target genes, Axin2 and c-Myc; experiment: Western blot of Wnt target proteins in LS174 CRC cells; type: cell-based
Experimental: Western blot. Western blots were performed using the following antibodies: β-catenin (Sigma, C2206), c-Myc (Epitomics, 1472-1), Axin2 (Cell Signaling, 2151), β-Actin (Sigma, A1978), TCF4 (Epitomics, 2114-1) and pygopus2 (Santa Cruz, sc-74878), Cyclin D1 (Cell signaling, 2926).
Cyclin B1 levels were decreased, whereas p21^WAF1/CIP1 levels increased, consistent with the fact that p21^WAF1/CIP1 expression is repressed by c-Myc. β-catenin levels were not affected by resveratrol. Next, the mRNA levels of β-catenin target genes were analyzed using RT-PCR. Expression of survivin, Lgr5, CD44, and c-Myc were decreased in resveratrol-treated cells.
A panel of stilbene analogs was designed and synthesized (FIGS. 2, 3, 5A and 6A). […] However, the solubility of 4d was poor and it was not effective below 10 μM concentrations (data not shown). To improve its solubility and activity, compound 4d was modified with 2′-fluoro 4e, 3′-fluoro 4f and 4′-fluoro 4g substituents (FIG. 5D). Both compounds 4e and 4f had good activity at 10 μM, (E)-4-(2-fluorostyryl)-N,N-dimethylaniline.
as §1

Wnt signaling = experiment: TopFlash luciferase reporter assay in HEK293T cells; type: cell-based
Experimental: Luciferase and cell proliferation assay. HEK293T cells were transiently transfected in a 12-well plate with 0.2 μg of the Super8xTOPFlash reporter and 0.05 μg of Renilla luciferase reporter. Culture medium was changed after 12 h. After 6 h, cells were treated with DMSO or Wnt inhibitors for 12 h, and then treated with 25 mM LiCl or Wnt conditioned medium. After 12 h, cells were harvested and luciferase activity measured by Dual-luciferase Reporter Assay System (Promega, Madison Wis.). All conditions were done in triplicate and each experiment was carried out at least two times. For cell proliferation assay, CRC cells were treated with DMSO or inhibitors for 2d and 4d. The cell numbers and viability were analyzed by Vi-Cell Cell Viability Analyzer. To identify Wnt pathway inhibitors for CRC prevention and treatment, a number of anti-cancer agents from plants were screened using the TopFlash reporter assay. The TopFlash reporter was transfected into HEK293T cells, and the cells were treated with Wnt3A-conditioned medium in order to activate the luciferase reporter. […] To determine if resveratrol regulates β-catenin degradation, the cells were treated with 25 mM LiCl, which inhibits GSK-3 and stabilizes β-catenin. In this assay, LiCl activated the reporter more strongly than Wnt3A conditioned medium. […] Emodin is an anti-cancer agent from plants; it exists in many unpurified resveratrol products. Emodin had no effect on Wnt signaling. See Zhang et al., J. of Med. Chem. 54, 1288-1297 (2011).

Compound	melting point	Wnt inhibitory activity in Western blot, qualitative or relative to a comparator ([1]; CRC cells)	also measured
COc1ccc(/C=C/c2ccccc2)cc1 [4b, (E)-4-Methoxystilbene]	136 to 137 °C		
C[N+](C)([O-])c1ccc(/C=C/c2c(Cl)cccc2Cl)cc1 [4bb, (E)-4-(2,6-dichlorostyryl)-N,N-dimethylaniline oxide]	80 to 82 °C		
Nc1ccc(C=Cc2ccccc2)cc1 [4c, 4-aminostilbene, reference compound]			repression of Wnt target genes at 30 μM ([1]; 30 μM, CRC cells): represses Wnt target genes
CNc1ccc(C=Cc2c(Cl)cccc2Cl)cc1 [4ee, (E and Z)-4-(2,6-dichlorostyryl)-N-methylaniline]			liver cancer cell proliferation, effectiveness versus resveratrol and 4r (liver cancer cells): significantly more effective than resveratrol, as well as compound 4r; colon cancer cell proliferation, effectiveness versus resveratrol and 4r (LS174 CRC cells): significantly more effective than resveratrol, as well as compound 4r
CN(C)c1ccc(/C=C/c2ccc(F)cc2)cc1 [4g, (E)-4-(4-Fluorostyryl)-N,N-dimethylaniline]	197 to 198 °C		
CCN(CC)c1ccc(/C=C/c2ccccc2F)cc1 [4h, (E)-4-(2-Fluorostyryl)-N,N-diethylaniline]	78 to 79 °C	not as potent as compound 4e	repression of Wnt target genes at 10 μM ([1]; CRC cells): active
Fc1ccccc1/C=C/c1ccc(N(c2ccccc2)c2ccccc2)cc1 [4i, (E)-4-(2-Fluorostyryl)-N,N-diphenylaniline]	114 to 115 °C		repression of Wnt target genes at 10 μM ([1]; CRC cells): inactive
CN1CCN(c2ccc(/C=C/c3ccccc3F)cc2)CC1 [4j, (E)-1-(4-(2-Fluorostyryl)phenyl)-4-methylpiperazine]	142 to 144 °C		
CN(C)c1ccc(/C=C/c2ccccc2F)c2ccccc12 [4k, (E)-4-(2-Fluorostyryl)-N,N-dimethylnaphthalen-1-amine]	56 to 58 °C		
CN(C)c1ccccc1/C=C/c1c(F)cccc1F [4p, (E)-2-(2,6-Difluorostyryl)-N,N-dimethylaniline]		not as active as compound 4r	
CN(C)c1cccc(/C=C/c2c(F)cccc2F)c1 [4q, (E)-3-(2,6-Difluorostyryl)-N,N-dimethylaniline]	69 to 71 °C	not as active as compound 4r	
CCN(CC)c1ccc(/C=C/c2c(F)cccc2F)cc1 [4s, (E)-4-(2,6-Difluorostyryl)-N,N-diethylaniline]	70 to 71 °C	slightly less active than compound 4r; also recorded: active Wnt inhibitor	
CN(C)c1ccc(/C=C/c2cc(F)cc(F)c2)cc1 [4u, (E)-4-(3,5-Difluorostyryl)-N,N-dimethylaniline]	136 to 137 °C		
CN(C)c1ccc(/C=C/c2c(F)cc(F)cc2F)cc1 [4w, (E)-N,N-Dimethyl-4-(2,4,6-trifluorostyryl)aniline]	127 to 128 °C	no significant improvements over compound 4r	repression of Wnt target genes at 10 μM ([1]; CRC cells): active
C[N+](C)([O-])c1ccc(/C=C/c2c(F)cccc2F)cc1 [4z, (E)-4-(2,6-difluorostyryl)-N,N-dimethylaniline oxide]	100 to 103 °C		
CN(C)c1ccc(CCc2c(F)cccc2F)cc1 [5r, (E)-4-(2,6-Difluorophenethyl)-N,N-dimethylaniline]		the activity was lost	
Cc1cc(O)c2c(c1)C(=O)c1cc(O)cc(O)c1C2=O [Emodin]			effect on Wnt signaling (Wnt signaling): no effect
Oc1ccc(/C=C\c2cc(O)cc(O)c2)cc1 [cis- or (Z)-resveratrol, reference compound]			protein levels of c-Myc and Cyclin D1 ([1]; LS174 CRC cells): reduced by resveratrol but not its isomer

Further lines, with some results ahead:

melting point	Compound	Wnt inhibitory activity in Western blot, qualitative or relative to a comparator ([1]; CRC cells)	also measured
82 to 84 °C	C[N+](C)([O-])c1ccc(/C=C/c2c(F)cccc2Cl)cc1 [4aa, (E)-4-(2-chloro-6-fluorostyryl)-N,N-dimethylaniline oxide]		liver cancer cell proliferation, effectiveness versus resveratrol and 4r (liver cancer cells): significantly more effective than resveratrol, as well as compound 4r; colon cancer cell proliferation, effectiveness versus resveratrol and 4r (LS174 CRC cells): significantly more effective than resveratrol, as well as compound 4r
124 to 126 °C	CN(C)c1ccc(/C=C/c2ccccc2F)cc1 [4e, (E)-4-(2-Fluorostyryl)-N,N-dimethylaniline]	best among all of the monofluoro-substituted compounds	CRC cell growth inhibition compared with other compounds (LS174 CRC cells; cell proliferation assay): significantly better inhibitor; repression of Wnt target genes at 10 μM ([1]; CRC cells): good activity
147 to 148 °C	CN(C)c1ccc(/C=C/c2cccc(F)c2)cc1 [4f, (E)-4-(3-Fluorostyryl)-N,N-dimethylaniline]		repression of Wnt target genes at 10 μM ([1]; CRC cells): good activity
132 to 133 °C	CN(C)c1ccc(/C=C/c2cccc(F)c2F)cc1 [4m, (E)-4-(2,3-Difluorostyryl)-N,N-dimethylaniline]	more active than compound 4e	repression of Wnt target genes at 10 μM ([1]; CRC cells): repress Wnt target genes
139 to 140 °C	CN(C)c1ccc(/C=C/c2ccc(F)cc2F)cc1 [4n, (E)-4-(2,4-Difluorostyryl)-N,N-dimethylaniline]		
146 to 147 °C	CN(C)c1ccc(/C=C/c2cc(F)ccc2F)cc1 [4o, (E)-4-(2,5-Difluorostyryl)-N,N-dimethylaniline]	more active than compound 4e	repression of Wnt target genes at 10 μM ([1]; CRC cells): repress Wnt target genes
159 to 160 °C	CN(C)c1ccc(/C=C/c2ccc(F)c(F)c2)cc1 [4t, (E)-4-(3,4-Difluorostyryl)-N,N-dimethylaniline]		
91 to 92 °C	CN(C)c1ccc(/C=C/c2c(F)ccc(F)c2F)cc1 [4v, (E)-N,N-Dimethyl-4-(2,3,6-trifluorostyryl)aniline]	no significant improvements over compound 4r	repression of Wnt target genes at 10 μM ([1]; CRC cells): active
42 to 44 °C	CN(C)c1ccc(/C=C/c2c(F)cccc2Cl)cc1 [4x, (E)-4-(2-chloro-6-fluorostyryl)-N,N-dimethylaniline]		
96 to 97 °C	CN(C)c1ccc(/C=C/c2c(Cl)cccc2Cl)cc1 [4y, (E)-4-(2,6-dichlorostyryl)-N,N-dimethylaniline]		
